Columns and labels:
Format in all cases: in vivo
[1] = system: Surinam grass (Brachiaria decumbens); assay: Test C preemergence
How it was run: (§1)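 Test chemicals, formulated in a non-phytotoxic solvent mixture with surfactant, were applied preemergence to planted seeds or postemergence to plants 2 to 18 cm tall (1- to 4-leaf stage). After 12 to 14 days in a greenhouse, injury was visually rated against untreated controls on a 0–100 scale.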

[2] = system: pigweed (Amaranthus retroflexus); assay: Test C preemergence
How it was run: as §1

[3] = system: goosegrass (Eleusine indica); assay: Test C preemergence
How it was run: as §1

[4] = system: lambsquarters (Chenopodium album); assay: Test C preemergence
How it was run: as §1

corn (Zea mays) = assay: Test C preemergence
How it was run: as §1

[5] = system: giant foxtail (Setaria faberii); assay: Test C preemergence
How it was run: as §1

[6] = system: bermudagrass (Cynodon dactylon); assay: Test C preemergence
How it was run: as §1

[7] = system: cocklebur (Xanthium strumarium); assay: Test C preemergence; conditions: preemergence
How it was run: as §1

[8] = system: johnsongrass (Sorghum halepense); assay: Test C preemergence
How it was run: as §1

kochia (Kochia scoparia) = assay: Test C preemergence
How it was run: as §1

[9] = system: common ragweed (Ambrosia elatior); assay: Test C preemergence
How it was run: as §1

Nightshade [10] = assay: Test C preemergence
[11] = system: morningglory (Ipomoea hederacea); assay: Test C preemergence; conditions: preemergence
How it was run: as §1

[12] = system: yellow nutsedge (Cyperus esculentus); assay: Test C preemergence
How it was run: as §1

[13] = system: velvetleaf (Abutilon theophrasti); assay: Test C preemergence
How it was run: as §1

soybean (Glycine max) = assay: Test C preemergence
How it was run: as §1

Sunflower = assay: Test C preemergence; conditions: Rate 125 g/ha; scale 0 to 100, 0 no effect, 100 complete control
[14] = system: crabgrass (Digitaria sanguinalis); assay: Test C preemergence
How it was run: as §1

[15] = system: woolly cupgrass (Eriochloa villosa); assay: Test C preemergence
How it was run: as §1

[16] = system: duck salad (Heteranthera limosa); assay: Test C flooded paddy test; conditions: for Ducksalad plant response rating: Flooded Paddy, scale 0 to 100, 0 no effect, 100 complete control
How it was run: (§2)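 Visual injury score, 0 (no effect) to 100 (complete control), relative to controls. Paddy plants treated at 2-leaf stage; greenhouse hold 12–14 d before rating.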

rice (Oryza saliva) = assay: Test C flooded paddy test
How it was run: as §2

[17] = system: smallflower flatsedge (Cyperus difformis); assay: Test C flooded paddy test; conditions: for Flatsedge plant response rating: Flooded Paddy, scale 0 to 100, 0 no effect, 100 complete control
How it was run: as §2

Nightshade [18] = assay: Test C preemergence; conditions: Rate 500 g/ha, visual evaluation after 12 to 14 days
[19] = Rate 125 g/ha, scale 0 to 100, 0 no effect, 100 complete control
[20] = preemergence, Rate 62 g/ha, scale 0 to 100
[21] = preemergence, Rate 500 g/ha, visual evaluation after 12 to 14 days
[22] = preemergence, Rate 250 g/ha, scale 0 to 100, 0 no effect, 100 complete control
[23] = Rate 250 g/ha, scale 0 to 100, 0 no effect, 100 complete control
[24] = flooded paddy test, Rate 125 g/ha, scale 0 to 100 (0 no effect, 100 complete control)
[25] = flooded paddy test, Rate 16 g/ha, visually evaluated after 12 to 14 days, 0 = no effect, 100 = complete control
[26] = flooded paddy test, Rate 62 g/ha, visually evaluated after 12 to 14 days, 0 = no effect, 100 = complete control
[27] = flooded paddy test, under head Rate 16 g/ha, (own rate not given), after 12 to 14 days

CCOc1cccc(N2CCC(n3ccc(C(C)(C)C)n3)C2=O)c1 (stereo not drawn) [Compound 130]
Plant response rating, Surinam grass [1, 19]: 100
Plant response rating, Surinam grass [1, 20]: 100
Plant response rating (0 to 100), Surinam grass [1, 21]: 100
Plant response rating, Surinam grass [1, 22]: 100
Plant response rating, Pigweed [2, 19]: 100
Plant response rating, Pigweed [2, 20]: 100
Plant response rating (0 to 100), Pigweed [2, 21]: 100
Plant response rating, Pigweed [2, 22]: 100
Plant response rating, Goosegrass [3, 19]: 100
Plant response rating, Goosegrass [3, 20]: 100
Plant response rating (0 to 100), Goosegrass [3, 21]: 100
Plant response rating, Goosegrass [3, 22]: 100
Plant response rating, Lambsquarters [4, 19]: 100
Plant response rating, Lambsquarters [4, 20]: 100
Plant response rating (0 to 100), Lambsquarters [4, 21]: 100
Plant response rating, Lambsquarters [4, 22]: 100
Plant response rating, Corn (corn (Zea mays); [19]): 80
Plant response rating, Corn (corn (Zea mays); [20]): 40
Plant response rating (0 to 100), Corn (corn (Zea mays); [21]): 100
Plant response rating, Corn (corn (Zea mays); [22]): 90
Plant response rating, Foxtail, Giant [5, 19]: 100
Plant response rating, Foxtail, Giant [5, 20]: 90
Plant response rating (0 to 100), Foxtail, Giant [5, 21]: 100
Plant response rating, Foxtail, Giant [5, 22]: 100
Plant response rating, Bermudagrass [6, 19]: 100
Plant response rating, Bermudagrass [6, 20]: 100
Plant response rating (0 to 100 where 0 is no effect and 100 is complete control), Bermudagrass [6, 21]: 100
Plant response rating, Bermudagrass [6, 22]: 100
Plant response rating, Cocklebur ([7]; Rate 62 g/ha, scale 0 to 100): 0
Plant response rating (0 to 100), Cocklebur ([7]; Rate 500 g/ha, visual evaluation after 12 to 14 days): 0
Plant response rating, Cocklebur [7, 23]: 0
Plant response rating, Johnsongrass [8, 19]: 90
Plant response rating, Johnsongrass [8, 20]: 0
Plant response rating (0 to 100), Johnsongrass [8, 21]: 100
Plant response rating, Johnsongrass [8, 22]: 100
Plant response rating, Kochia (kochia (Kochia scoparia); [19]): 100
Plant response rating, Kochia (kochia (Kochia scoparia); [20]): 100
Plant response rating (0 to 100), Kochia (kochia (Kochia scoparia); [21]): 100
Plant response rating, Kochia (kochia (Kochia scoparia); [22]): 100
Plant response rating, Ragweed, Common [9, 19]: 100
Plant response rating, Ragweed, Common [9, 20]: 100
Plant response rating (0 to 100), Ragweed, Common [9, 21]: 100
Plant response rating, Ragweed, Common [9, 22]: 100
Plant response rating, Nightshade (Nightshade [10]; Rate 62 g/ha, scale 0 to 100): 100
Plant response rating, Nightshade (Nightshade [10]; [19]): 100
Plant response rating, Nightshade (Nightshade [10]; [23]): 100
Plant response rating, Morningglory ([11]; Rate 62 g/ha, scale 0 to 100): 70
Plant response rating, Morningglory [11, 23]: 90
Plant response rating, Nutsedge [12, 19]: 80
Plant response rating, Nutsedge [12, 20]: 30
Plant response rating (0 to 100), Nutsedge [12, 21]: 100
Plant response rating, Nutsedge [12, 22]: 100
Plant response rating, Velvetleaf [13, 19]: 60
Plant response rating, Velvetleaf [13, 20]: 60
Plant response rating (0 to 100), Velvetleaf [13, 21]: 60
Plant response rating, Velvetleaf [13, 22]: 60
Plant response rating, Soybean (soybean (Glycine max); [19]): 30
Plant response rating, Soybean (soybean (Glycine max); [20]): 30
Plant response rating (0 to 100), Soybean (soybean (Glycine max); [21]): 60
Plant response rating, Soybean (soybean (Glycine max); [22]): 40
Plant response rating, Sunflower (Sunflower): 60
Plant response rating, Crabgrass [14, 19]: 100
Plant response rating, Crabgrass [14, 20]: 100
Plant response rating (0 to 100), Crabgrass [14, 21]: 100
Plant response rating, Crabgrass [14, 22]: 100
Plant response rating, Cupgrass, Woolly [15, 19]: 100
Plant response rating, Cupgrass, Woolly [15, 20]: 100
Plant response rating (0 to 100), Cupgrass, Woolly [15, 21]: 100
Plant response rating, Cupgrass, Woolly [15, 22]: 100
Ducksalad plant response rating ([16]; Rate 250 g/ha): 90
Ducksalad plant response rating ([16]; Rate 500 g/ha): 100
Plant response rating, Ducksalad [16, 24]: 90
Plant response rating (scale 0 to 100), Ducksalad [16, 25]: 70
Plant response rating (scale 0 to 100), Ducksalad [16, 26]: 90
Plant response rating (scale 0 to 100), Ducksalad [16, 27]: 20
Rice plant response rating (rice (Oryza saliva); Flooded Paddy, Rate 250 g/ha, scale 0 to 100, 0 no effect, 100 complete control): 80
Plant response rating, Rice (rice (Oryza saliva); [24]): 20
Plant response rating (scale 0 to 100), Rice (rice (Oryza saliva); [25]): 0
Plant response rating (scale 0 to 100), Rice (rice (Oryza saliva); [26]): 50
Plant response rating (scale 0 to 100), Rice (rice (Oryza saliva); [27]): 0
Flatsedge plant response rating ([17]; Rate 250 g/ha): 90
Flatsedge plant response rating ([17]; Rate 500 g/ha): 90
Plant response rating, Flatsedge [17, 24]: 100
Plant response rating (scale 0 to 100), Flatsedge [17, 25]: 100
Plant response rating (scale 0 to 100), Flatsedge [17, 26]: 90
Plant response rating (scale 0 to 100), Flatsedge [17, 27]: 90
Plant response rating (0 to 100), Nightshade (Nightshade [18]): 100
